Eight compounds from ChEMBL document CHEMBL1132959, “Design of potent dicyclic (1-5/4-10) gonadotropin releasing hormone (GnRH) antagonists” (J Med Chem, 2000) can be followed below.

For assay [1], the species on record is Rattus norvegicus. The assay is described as follows: Antiovulatory potency at 5 ug/rat expressed as rats ovulating by total no. of rats (3/5). Type of assay: functional.
Assay [2] is filed under the species Rattus norvegicus. The assay is described as follows: Antiovulatory potency at 2.5 ug/rat expressed as rats ovulating by total no. of rats (3/5). The class given is functional.
The species entered for assay [3] is Rattus norvegicus. In words: Antiovulatory potency at 1 ug/rat expressed as rats ovulating by total no. of rats (4/4). The class given is functional.
The target of assay [4] is T1, Gonadotropin-releasing hormone receptor (Rattus norvegicus, UniProt P30969).
T1 sequence (P30969 whole entry): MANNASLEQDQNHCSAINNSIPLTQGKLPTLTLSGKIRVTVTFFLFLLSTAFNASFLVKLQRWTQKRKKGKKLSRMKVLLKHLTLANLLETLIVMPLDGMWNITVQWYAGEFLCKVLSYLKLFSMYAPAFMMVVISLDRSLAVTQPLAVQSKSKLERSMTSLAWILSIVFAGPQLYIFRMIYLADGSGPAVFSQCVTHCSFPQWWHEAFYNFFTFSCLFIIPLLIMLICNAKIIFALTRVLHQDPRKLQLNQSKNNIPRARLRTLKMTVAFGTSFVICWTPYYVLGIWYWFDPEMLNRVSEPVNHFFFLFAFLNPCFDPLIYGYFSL
The assay is described as follows: Affinity for rat gonadotrophin releasing hormone (GnRH) receptor using HEK293 cells transfected with rat Gonadotropin-releasing hormone receptor. The class given is cell-based. Particulars: hek293.

For assay [5], the species on record is Rattus norvegicus. In words: Antiovulatory potency at 250 ug/rat expressed as rats ovulating by total no. of rats (3/3). Type of assay: functional.
Assay [6] is filed under the species Rattus norvegicus. The assay is described as follows: Antiovulatory potency at 250 ug/rat expressed as rats ovulating by total no. of rats (0/5). The class given is functional.
For assay [7], the species on record is Rattus norvegicus. In words: Antiovulatory potency at 100 ug/rat expressed as rats ovulating by total no. of rats (5/5). Type of assay: functional.
For assay [8], the species on record is Rattus norvegicus. The assay is described as follows: Antiovulatory potency at 100 ug/rat expressed as rats ovulating by total no. of rats (0/4). The class given is functional.
The species entered for assay [9] is Rattus norvegicus. The assay is described as follows: Antiovulatory potency at 250 ug/rat expressed as rats ovulating by total no. of rats (5/5). The class given is functional.
The species entered for assay [10] is Rattus norvegicus. In words: Antiovulatory potency at 10 ug/rat expressed as rats ovulating by total no. of rats (0/6). The class given is functional.
For assay [11], the species on record is Rattus norvegicus. In words: Antiovulatory potency at 2.5 ug/rat expressed as rats ovulating by total no. of rats (2/8). The class given is functional.
The species named for assay [12] is Rattus norvegicus. In words: Antiovulatory potency at 5 ug/rat expressed as rats ovulating by total no. of rats (1/7). Type of assay: functional.
The species entered for assay [13] is Rattus norvegicus. In words: Antiovulatory potency at 500 ug/rat expressed as rats ovulating by total no. of rats (5/7). The class given is functional.
For assay [14], the species on record is Rattus norvegicus. The assay is described as follows: Antiovulatory potency at 5 ug/rat expressed as rats ovulating by total no. of rats (0/5). Type of assay: functional.
The species named for assay [15] is Rattus norvegicus. The assay is described as follows: Antiovulatory potency at 2.5 ug/rat expressed as rats ovulating by total no. of rats (4/16). Type of assay: functional.
Assay [16] is filed under the species Rattus norvegicus. In words: Antiovulatory potency at 1 ug/rat expressed as rats ovulating by total no. of rats (5/7). The class given is functional.
The species entered for assay [17] is Rattus norvegicus. In words: Antiovulatory potency at 10 ug/rat expressed as rats ovulating by total no. of rats (5/5). The class given is functional.
Assay [18] is filed under the species Rattus norvegicus. In words: Antiovulatory potency at 25 ug/rat expressed as rats ovulating by total no. of rats (3/7). Type of assay: functional.
Assay [19] is filed under the species Rattus norvegicus. The assay is described as follows: Antiovulatory potency at 50 ug/rat expressed as rats ovulating by total no. of rats (0/5). The class given is functional.

For `CC(=O)N[C@@H]1CC(=O)NCC(=O)NCC[C@H]2NC(=O)[C@@H](CC(=O)NC[C@H](C(N)=O)NC(=O)[C@H]3CCCN3C(=O)[C@H](CCCN=C(N)N)NC(=O)[C@@H](CC(C)C)NC(=O)[C@@H](Cc3ccc4ccccc4c3)NC2=O)NC(=O)[C@@H](Cc2cccnc2)NC(=O)[C@H](Cc2ccc(Cl)cc2)NC1=O`, the values for the Ovulating rats in the assay filed under Rattus norvegicus [1], in the assay listed under Rattus norvegicus [2] and in the assay listed under Rattus norvegicus [3] were 3, 3 and 4, respectively. This compound showed an inhibitory constant (Ki) in assay [4] of 0.12 nM.

In [4], `CC(=O)N[C@@H]1CC(=O)NCC(=O)NCC[C@H]2NC(=O)[C@@H](CC(=O)NC[C@H](C(N)=O)NC(=O)[C@H]3CCCN3C(=O)[C@H](CCCN=C(N)N)NC(=O)[C@@H](CC(C)C)NC(=O)[C@@H](Cc3cccnc3)NC2=O)NC(=O)[C@@H](Cc2cccnc2)NC(=O)[C@H](Cc2ccc(Cl)cc2)NC1=O` showed an inhibition constant Ki of 1.6 nM. This compound returned an Ovulating rats in the assay listed under Rattus norvegicus [5] of 3.

With `CC(=O)N[C@H](Cc1ccc2ccccc2c1)C(=O)N[C@H](Cc1ccc(Cl)cc1)C(=O)N[C@@H]1CC(=O)NCCC[C@@H](C(=O)N2CCC[C@H]2C(=O)N[C@H](C)C(N)=O)NC(=O)[C@H](CC(C)C)NC(=O)[C@@H](Cc2ccc3ccccc3c2)NC(=O)[C@H](CCCN=C(N)N)NC(=O)[C@H](C)NC1=O`, the Ovulating rats in the assay filed under Rattus norvegicus [6] turned out to be 0; in the assay filed under Rattus norvegicus [7] it was 5.

`CC(=O)N[C@H](Cc1ccc2ccccc2c1)C(=O)N[C@H](Cc1ccc(Cl)cc1)C(=O)N[C@@H]1CC(=O)NCCCC[C@@H]2NC(=O)[C@H](CC(C)C)NC(=O)[C@@H](CCCN=C(N)N)NC(=O)[C@H](Cc3ccc(O)cc3)NC(=O)[C@H](CC(=O)NC[C@@H](C(N)=O)NC(=O)[C@@H]3CCCN3C2=O)NC1=O`: the results for the Ovulating rats in the assay filed under Rattus norvegicus [8] and in the assay listed under Rattus norvegicus [9] were 0 and 5, respectively.

On to `CC(=O)N[C@@H]1CCC(=O)NCC(=O)NCC[C@H]2NC(=O)[C@@H](CC(=O)NC[C@H](C(N)=O)NC(=O)[C@H]3CCCN3C(=O)[C@H](CCCN=C(N)N)NC(=O)[C@@H](CC(C)C)NC(=O)[C@@H](Cc3ccc4ccccc4c3)NC2=O)NC(=O)[C@@H](Cc2c[nH]c3ccccc23)NC(=O)[C@H](Cc2ccc(Cl)cc2)NC1=O`, for which the Ovulating rats worked out at 0 in the assay filed under Rattus norvegicus [10], 2 in the assay filed under Rattus norvegicus [11] and 1 in the assay filed under Rattus norvegicus [12].

In the assay filed under Rattus norvegicus [13], `CC(=O)N[C@H](Cc1ccc2ccccc2c1)C(=O)N[C@H]1CSSC[C@@H]2NC(=O)[C@H](Cc3ccc(O)cc3)NC(=O)[C@H](CC(=O)NC[C@@H](C(N)=O)NC(=O)[C@@H]3CCCN3C(=O)[C@H](CCCN=C(N)N)NC(=O)[C@H](CC(C)C)NC2=O)NC(=O)[C@@H](Cc2c[nH]c3ccccc23)NC1=O` came in with an Ovulating rats of 5. Further, the inhibitory constant (Ki) in assay [4] came to 13 nM.

For the compound `CC(=O)N[C@H]1CC(=O)NCC(=O)NCC[C@@H]2NC(=O)[C@H](CC(=O)NC[C@@H](C(N)=O)NC(=O)[C@@H]3CCCN3C(=O)[C@H](CCCN=C(N)N)NC(=O)[C@H](CC(C)C)NC(=O)[C@@H](Cc3ccc4ccccc4c3)NC2=O)NC(=O)[C@@H](Cc2c[nH]c3ccccc23)NC(=O)[C@@H](Cc2ccc(Cl)cc2)NC1=O`, the Ovulating rats is given as 0 in the assay listed under Rattus norvegicus [14], 4 in the assay listed under Rattus norvegicus [15] and 5 in the assay listed under Rattus norvegicus [16].

Turning to `CC(=O)N[C@H](Cc1ccc2ccccc2c1)C(=O)N[C@H](Cc1ccc(Cl)cc1)C(=O)N[C@@H]1CC(=O)NCCCC[C@@H](C(=O)N2CCC[C@H]2C(=O)N[C@H](C)C(N)=O)NC(=O)[C@H](CC(C)C)NC(=O)[C@@H](Cc2ccc3ccccc3c2)NC(=O)[C@H](CCCN=C(N)N)NC(=O)[C@H](C)NC1=O`, the figures for the Ovulating rats in the assay listed under Rattus norvegicus [17], in the assay filed under Rattus norvegicus [18] and in the assay filed under Rattus norvegicus [19] were 5, 3 and 0, respectively.
